Reference: paper PMC9735679, “Identification and Evolution of a Natural Tetr Protein Based on Molecular Docking and Development of a Fluorescence Polari-Zation Assay for Multi-Detection of 10 Tetracyclines in Milk” (Foods, 2022)
Like-named read-outs stand apart in the source and are kept apart here.

Key:
Assay type in all cases: binding
natural TetR [1] = molecular target: T1, natural TetR (Escherichia coli, UniProt P04483); assay: Surface plasmon resonance affinity, natural TetR; conditions: for Kd: KD (equilibrium dissociation constant, Kd/Ka); for Kd / koff (dissociation rate constant): SPR
T1 construct: made in house
Description: (§1) After the experiments, the association constant (Ka), the dissociation constant (Kd), and the equilibrium dissociation constant (KD = Kd/Ka) for each drug were calculated. For convenience in comparing their affinities, the absolute affinity constant (KA = […]) for each drug was also calculated.

TetR mutant [2] = molecular target: T2, TetR mutant (Escherichia coli, UniProt P04483, H139W); assay: Fluorescence polarization assay (FPA) with TetR mutant; conditions: for LOD (limit of detection, IC10) / inhibition ratio (1-FP/FP0) / FP values at 0 and 100 ng/mL: TetR mutant; for LOD (limit of detection, IC10): FPA, FA-MC tracer, drugs diluted with blank milk extract; for inhibition ratio (1-FP/FP0): 100 ng/mL; for FP values at 0 and 100 ng/mL: either tracer (FITC-MC or FA-MC), specificity test
T2 construct: made in house; host or cells: E. coli Rosetta-gami(BL21), vector pET28a
Description: (§2) The FPA method was performed as follows. A total of 50 μL mutant, 50 μL TCs solution, and 50 μL fluorescent tracer were added into the wells of a 96-well microplate (in triplicate) and incubated for 2 min. Then the fluorescence polarization (FP) value of each well was recorded (λex 485 nm, λem 528 nm, emission cutoff of 515 nm). During the experiments, the two fluorescent tracers were compared, and several other parameters were optimized, including tracer concentration, mutant concentration, Mg^2+ concentration and incubation time. The 10 TCs and several other classes of drugs were all tested by this method. The competitive curve was developed by plotting the FP/FP0 values (the fluorescence polarization value at each concentration divided by that of zero concentration) versus the concentrations of the TCs (log C). Based on the developed competitive curve, the half of inhibition (IC50) and the limit of detection (IC10) for each drug were determined, respectively.
For obtaining the best method performance, several parameters were optimized with DMC as the representative. Firstly, the concentrations of FA-MC and the mutant were optimized. During the experiments, the FA-MC and the mutant at different concentrations were mixed with the same concentration of DMC to perform the assay. […] Secondly, the concentration of Mg^2+ (MgCl2) was optimized. […] Thirdly, the competition time was optimized.
(§3) This is the first study reporting an FPA method for the determination of TCs. Under the optimal conditions, the 10 TCs were diluted with the extracts of a blank milk sample to be analyzed, respectively. […] During the experiments, the natural TetR was also used to perform the FPA method as described above.

natural TetR [3] = molecular target: T1, natural TetR; assay: Fluorescence polarization assay (FPA) with natural TetR
Description: as §2, §3

TetR mutant [4] = molecular target: T2, TetR mutant; assay: Surface plasmon resonance affinity, TetR mutant; conditions: SPR; for Kd: KD (equilibrium dissociation constant, Kd/Ka)
Description: as §1
The primers were designed according to the virtual model: mutant for, […]; mutant rev, […]. The amplified gene was inserted into pET28a to construct the express vector that was transformed into E. coli Rosetta-gami(BL21) to express the mutant, and these procedures were according to our recent report. The obtained TetR mutant was characterized by using SDS-PAGE and western blotting according to our recent report, and its recognition ability for the 10 TCs was evaluated by the following FPA method. Furthermore, its recognition mechanisms and affinities for the 10 TCs were also determined as described above.

[5] = read-out: Ka (association constant), TetR without Mg2+, SPR
[6] = read-out: Ka (association constant), TetR+Mg2+, SPR

Row | SMILES | Kd (natural TetR [1]; TetR without Mg2+) | Kd (natural TetR [1]; TetR+Mg2+) | koff (dissociation rate constant) (natural TetR [1]; TetR without Mg2+) | koff (dissociation rate constant) (natural TetR [1]; TetR+Mg2+) | kon (natural TetR [1]; [5]) | kon (natural TetR [1]; [6]) | IC50 (TetR mutant [2]) | LOD (limit of detection, IC10) (TetR mutant [2]) | IC50 (natural TetR [3]) | Kd (TetR mutant [4]; TetR mutant without Mg2+) | Kd (TetR mutant [4]; TetR mutant+Mg2+) | Dissociation rate constant (koff) (TetR mutant [4]; TetR mutant without Mg2+) | Dissociation rate constant (koff) (TetR mutant [4]; TetR mutant+Mg2+) | inhibition ratio (1-FP/FP0) (TetR mutant [2]; tracer FA-MC) | inhibition ratio (1-FP/FP0) (TetR mutant [2]; tracer FITC-MC) | FP values at 0 and 100 ng/mL (TetR mutant [2])
1 | CN(C)[C@@H]1C(O)=C(C(N)=O)C(=O)[C@@]2(O)C(O)=C3C(=O)c4c(O)ccc(Cl)c4[C@@](C)(O)[C@H]3C[C@@H]12 [CTC, chlortetracycline] | 4990 nM | 2560 nM | 0.0148 s⁻¹ | 0.0113 s⁻¹ | 2970 M⁻¹ s⁻¹ | 4430 M⁻¹ s⁻¹ | 115 nM | 1.4 ng/mL | 167 nM | 16.3 nM | 9.11 nM | 0.000822 s⁻¹ | 0.000404 s⁻¹ | – | – | –
2 | C[C@H]1c2cccc(O)c2C(=O)C2=C(O)[C@]3(O)C(=O)C(C(N)=O)=C(O)[C@@H](N(C)C)[C@@H]3[C@@H](O)[C@@H]21 [DC, doxycycline] | 21.1 nM | 41.1 nM | 0.00113 s⁻¹ | 0.0018 s⁻¹ | 53400 M⁻¹ s⁻¹ | 43900 M⁻¹ s⁻¹ | 68.2 nM | 1.0 ng/mL | 82.4 nM | 0.249 nM | 0.641 nM | 6.65e-05 s⁻¹ | 0.000113 s⁻¹ | – | – | –
3 | CN(C)[C@@H]1C(O)=C(C(N)=O)C(=O)[C@@]2(O)C(O)=C3C(=O)c4c(O)ccc(Cl)c4[C@@H](O)[C@H]3C[C@@H]12 [DMC, demeclocycline] | 74.4 nM | 27.6 nM | 0.000206 s⁻¹ | 0.000127 s⁻¹ | 2770 M⁻¹ s⁻¹ | 4610 M⁻¹ s⁻¹ | 33.3 nM | 0.4 ng/mL | 66.7 nM | 3.1 nM | 0.0928 nM | 1.72e-05 s⁻¹ | 4.7e-06 s⁻¹ | 69% | 52% | –
4 | CN(C)[C@@H]1C(O)=C(C(=O)NCNCCCC[C@H](N)C(=O)O)C(=O)[C@@]2(O)C(O)=C3C(=O)c4c(O)cccc4[C@@](C)(O)[C@H]3C[C@@H]12 [LMC, Lymecycline] | 366 nM | 263 nM | 0.00116 s⁻¹ | 0.00121 s⁻¹ | 3170 M⁻¹ s⁻¹ | 4590 M⁻¹ s⁻¹ | 75.8 nM | 1.0 ng/mL | 92.3 nM | 2.54 nM | 1.09 nM | 7.25e-05 s⁻¹ | 0.00011 s⁻¹ | – | – | –
5 | CN(C)c1ccc(O)c2c1C[C@H]1C[C@H]3[C@H](N(C)C)C(O)=C(C(N)=O)C(=O)[C@@]3(O)C(O)=C1C2=O [MC, minocycline] | 112 nM | 70.3 nM | 0.000507 s⁻¹ | 0.000511 s⁻¹ | 4540 M⁻¹ s⁻¹ | 7270 M⁻¹ s⁻¹ | 52 nM | 0.5 ng/mL | 94.9 nM | 3.1 nM | 0.191 nM | 4.23e-05 s⁻¹ | 3.19e-05 s⁻¹ | – | – | –
6 | C=C1c2cccc(O)c2C(=O)C2=C(O)[C@]3(O)C(=O)C(C(N)=O)=C(O)[C@@H](N(C)C)[C@@H]3[C@@H](O)[C@H]12 [MTC, Methacycline] | 111 nM | 122 nM | 0.00016 s⁻¹ | 0.000162 s⁻¹ | 1440 M⁻¹ s⁻¹ | 1330 M⁻¹ s⁻¹ | 110 nM | 1.5 ng/mL | 114 nM | 3.97 nM | 0.3 nM | 5.71e-06 s⁻¹ | 5.59e-06 s⁻¹ | – | – | –
7 | CN(C)[C@@H]1C(O)=C(C(N)=O)C(=O)[C@@]2(O)C(O)=C3C(=O)c4c(O)cccc4[C@@](C)(O)[C@H]3[C@H](O)[C@@H]12 [OTC, oxytetracycline] | 965 nM | 409 nM | 0.00199 s⁻¹ | 0.00144 s⁻¹ | 2060 M⁻¹ s⁻¹ | 3520 M⁻¹ s⁻¹ | 78.2 nM | 0.8 ng/mL | 130 nM | 1.76 nM | 1.48 nM | 7.96e-05 s⁻¹ | 0.00012 s⁻¹ | – | – | –
8 | CN(C)[C@@H]1C(O)=C(C(N)=O)C(=O)[C@@]2(O)C(O)=C3C(=O)c4c(O)cccc4C[C@H]3C[C@@H]12 [SC, Sancycline] | 59.5 nM | 70.2 nM | 0.000127 s⁻¹ | 0.000162 s⁻¹ | 2140 M⁻¹ s⁻¹ | 2310 M⁻¹ s⁻¹ | 70 nM | 0.7 ng/mL | 106 nM | 0.593 nM | 0.417 nM | 6.35e-06 s⁻¹ | 5.79e-06 s⁻¹ | – | – | –
9 | CN(C)[C@@H]1C(O)=C(C(N)=O)C(=O)[C@@]2(O)C(O)=C3C(=O)c4c(O)cccc4[C@@](C)(O)[C@H]3C[C@@H]12 [TC, tetracycline] | 7690 nM | 4790 nM | 0.00156 s⁻¹ | 0.00133 s⁻¹ | 203 M⁻¹ s⁻¹ | 278 M⁻¹ s⁻¹ | 85.5 nM | 1.3 ng/mL | 146 nM | 768 nM | 62.1 nM | 0.000156 s⁻¹ | 0.000121 s⁻¹ | – | – | –
10 | CN(C)c1cc(NC(=O)CNC(C)(C)C)c(O)c2c1C[C@H]1C[C@H]3[C@H](N(C)C)C(O)=C(C(N)=O)C(=O)[C@@]3(O)C(O)=C1C2=O [TIC, tigecycline] | 10.4 nM | 28.2 nM | 1.04e-05 s⁻¹ | 1.78e-05 s⁻¹ | 1010 M⁻¹ s⁻¹ | 633 M⁻¹ s⁻¹ | 27.3 nM | 0.4 ng/mL | 52.6 nM | 0.104 nM | 0.104 nM | 9.45e-07 s⁻¹ | 1.78e-06 s⁻¹ | – | – | –
11 | CN(C)CCCN1c2ccccc2Sc2ccc(Cl)cc21 [chlorpromazine] | – | – | – | – | – | – | – | – | – | – | – | – | – | – | – | comparably high
12 | O=C(O)c1cn(C2CC2)c2cc(N3CCNCC3)c(F)cc2c1=O [ciprofloxacin] | – | – | – | – | – | – | – | – | – | – | – | – | – | – | – | comparably high
13 | CN1C(=O)CN=C(c2ccccc2)c2cc(Cl)ccc21 [diazepam] | – | – | – | – | – | – | – | – | – | – | – | – | – | – | – | comparably high
14 | [H]/N=C(/N)N[C@H]1[C@H](O)[C@@H](O)[C@H](O[C@@H]2O[C@@H](C)[C@](O)(C=O)[C@H]2O[C@@H]2O[C@@H](CO)[C@H](O)[C@@H](O)[C@@H]2NC)[C@@H](N/C(N)=N\[H])[C@@H]1O [streptomycin] | – | – | – | – | – | – | – | – | – | – | – | – | – | – | – | comparably high
